Measurements published in patent US20120277197A1, “TIGECYCLINE FORMULATIONS” (WYETH, priority 2008, published 2012).

Experiment: Effect of pH on stability of tigecycline 0.50 mg/ml in Normal Saline, in a flask at 25° C.
Type: physicochemical
Procedure: The effect of pH on the stability of tigecycline formulations having a concentration of 0.50 mg tigecycline/ml in a Normal Saline solution was studied by analyzing the variation of tigecycline content, total impurity content, and the concentration of tigecycline epimer at different pH values, either in the presence of air or under an atmosphere having an oxygen content of less than 1 ppm, in a flask at 25° C.

[1] = pH 3, 0 h, in the presence of air
[2] = pH 3, 8 h, in the presence of air
[3] = pH 3, 24 h, in the presence of air
[4] = pH 3, 72 h, in the presence of air
[5] = pH 3.5, 0 h, in the presence of air
[6] = pH 3.5, 8 h, in the presence of air
[7] = pH 3.5, 24 h, in the presence of air
[8] = pH 3.5, 72 h, in the presence of air
[9] = pH 4.0, 0 h, in the presence of air
[10] = pH 4.0, 24 h, in the presence of air
[11] = pH 4.0, 72 h, in the presence of air
[12] = pH 4.5, 0 h, in the presence of air
[13] = pH 4.5, 8 h, in the presence of air
[14] = pH 4.5, 24 h, in the presence of air

For `CN(C)c1cc(NC(=O)CNC(C)(C)C)c(O)c2c1C[C@H]1C[C@H]3[C@H](N(C)C)C(O)=C(C(N)=O)C(=O)[C@@]3(O)C(O)=C1C2=O` [tigecycline, Tigecycline], which “pH at which the solution is most stable, based on total impurity content and tigecycline content” value (in the presence of air) is on record?
The value was 4.5-5.0.

And the “pH at which the solution is most stable” value (oxygen <1 ppm)?
The value was 4.5-6.0.

And the “Total impurity content as a % of initial weight of tigecycline” value (“Total impurity content as a %” below) [1]?
The value was 0.36%.

And the “Total tigecycline epimer content as a % of initial weight of tigecycline” value (“Total tigecycline epimer content as a %” for short) [1]?
Its value is 0.19%.

And the “Percentage of tigecycline remaining” value (pH 3.0, 0 h, in the presence of air)?
Its value is 100%.

What about the “Total impurity content as a %” value (pH 3, 0 h, oxygen <1 ppm) of the same compound?
The value was 0.258%.

And the “Total tigecycline epimer content as a %” value (pH 3, 0 h, oxygen <1 ppm)?
The value was 0.152%.

And the “Percentage of tigecycline remaining” value (pH 3.0, 0 h, oxygen <1 ppm)?
Its value is 100.0%.

What about the “Total impurity content as a %” value [2] of the same compound?
Its value is 0.907%.

What about the “Total tigecycline epimer content as a %” value [2] of the same compound?
Its value is 0.83%.

And the “Percentage of tigecycline remaining” value (pH 3.0, 8 h, in the presence of air)?
Its value is 100%.

And the “Total impurity content as a %” value (pH 3, 8 h, oxygen <1 ppm)?
The value was 0.628%.

What about the “Total tigecycline epimer content as a %” value (pH 3, 8 h, oxygen <1 ppm) of the same compound?
Its value is 0.485%.

What about the “Percentage of tigecycline remaining” value (pH 3.0, 8 h, oxygen <1 ppm) of the same compound?
The value was 99.55%.

And the “Total impurity content as a %” value [3]?
The value was 2.564%.

And the “Total tigecycline epimer content as a %” value [3]?
The value was 2.27%.

And the “Percentage of tigecycline remaining” value (pH 3.0, 24 h, in the presence of air)?
The value was 98%.

And the “Total impurity content as a %” value (pH 3, 24 h, oxygen <1 ppm)?
The value was 2.391%.

What about the “Total tigecycline epimer content as a %” value (pH 3, 24 h, oxygen <1 ppm) of the same compound?
The value was 2.267%.

What about the “Percentage of tigecycline remaining” value (pH 3.0, 24 h, oxygen <1 ppm) of the same compound?
Its value is 98.08%.

What about the “Total impurity content as a %” value [4] of the same compound?
The value was 8.3%.

What about the “Total tigecycline epimer content as a %” value [4] of the same compound?
The value was 7.58%.

And the “Percentage of tigecycline remaining” value (pH 3.0, 72 h, in the presence of air)?
The value was 93%.

What about the “Total impurity content as a %” value (pH 3, 72 h, oxygen <1 ppm) of the same compound?
The value was 7.853%.

And the “Total tigecycline epimer content as a %” value (pH 3, 72 h, oxygen <1 ppm)?
Its value is 7.651%.

And the “Percentage of tigecycline remaining” value (pH 3.0, 72 h, oxygen <1 ppm)?
The value was 92.24%.

And the “Percentage of tigecycline remaining” value [5]?
The value was 100%.

What about the “Total impurity content as a %” value [5] of the same compound?
The value was 0.35%.

And the “Total tigecycline epimer content as a %” value [5]?
Its value is 0.18%.

What about the “Percentage of tigecycline remaining” value (pH 3.5, 0 h, oxygen <1 ppm) of the same compound?
The value was 100.0%.

What about the “Total impurity content as a %” value (pH 3.5, 0 h, oxygen <1 ppm) of the same compound?
Its value is 0.245%.

What about the “Total tigecycline epimer content as a %” value (pH 3.5, 0 h, oxygen <1 ppm) of the same compound?
The value was 0.133%.

What about the “Percentage of tigecycline remaining” value [6] of the same compound?
The value was 100%.

What about the “Total impurity content as a %” value [6] of the same compound?
Its value is 0.737%.

And the “Total tigecycline epimer content as a %” value [6]?
Its value is 0.47%.

And the “Percentage of tigecycline remaining” value (pH 3.5, 8 h, oxygen <1 ppm)?
The value was 100.19%.

And the “Total impurity content as a %” value (pH 3.5, 8 h, oxygen <1 ppm)?
Its value is 0.559%.

What about the “Total tigecycline epimer content as a %” value (pH 3.5, 8 h, oxygen <1 ppm) of the same compound?
The value was 0.383%.

And the “Percentage of tigecycline remaining” value [7]?
Its value is 100%.

What about the “Total impurity content as a %” value [7] of the same compound?
The value was 1.727%.

And the “Total tigecycline epimer content as a %” value [7]?
Its value is 1.45%.

And the “Percentage of tigecycline remaining” value (pH 3.5, 24 h, oxygen <1 ppm)?
Its value is 99.26%.

What about the “Total impurity content as a %” value (pH 3.5, 24 h, oxygen <1 ppm) of the same compound?
Its value is 1.478%.

And the “Total tigecycline epimer content as a %” value (pH 3.5, 24 h, oxygen <1 ppm)?
The value was 1.351%.

And the “Percentage of tigecycline remaining” value [8]?
The value was 95%.

What about the “Total impurity content as a %” value [8] of the same compound?
The value was 5.521%.

What about the “Total tigecycline epimer content as a %” value [8] of the same compound?
Its value is 4.83%.

And the “Percentage of tigecycline remaining” value (pH 3.5, 72 h, oxygen <1 ppm)?
Its value is 96.03%.

And the “Total impurity content as a %” value (pH 3.5, 72 h, oxygen <1 ppm)?
Its value is 4.913%.

What about the “Total tigecycline epimer content as a %” value (pH 3.5, 72 h, oxygen <1 ppm) of the same compound?
The value was 4.671%.

And the “Percentage of tigecycline remaining” value [9]?
The value was 100%.

And the “Total impurity content as a %” value [9]?
Its value is 0.32%.

What about the “Total tigecycline epimer content as a %” value [9] of the same compound?
The value was 0.189%.

What about the “Percentage of tigecycline remaining” value [10] of the same compound?
Its value is 100%.

And the “Total impurity content as a %” value [10]?
The value was 1.06%.

What about the “Total tigecycline epimer content as a %” value [10] of the same compound?
The value was 0.90%.

And the “Percentage of tigecycline remaining” value [11]?
Its value is 98%.

What about the “Total impurity content as a %” value [11] of the same compound?
The value was 3.129%.

What about the “Total tigecycline epimer content as a %” value [11] of the same compound?
Its value is 2.90%.

What about the “Percentage of tigecycline remaining” value [12] of the same compound?
The value was 100%.

What about the “Total impurity content as a %” value [12] of the same compound?
The value was 0.30%.

And the “Total tigecycline epimer content as a %” value [12]?
The value was 0.16%.

What about the “Percentage of tigecycline remaining” value (pH 4.5, 0 h, oxygen <1 ppm) of the same compound?
Its value is 100.0%.

And the “Total impurity content as a %” value (pH 4.5, 0 h, oxygen <1 ppm)?
Its value is 0.232%.

And the “Total tigecycline epimer content as a %” value (pH 4.5, 0 h, oxygen <1 ppm)?
Its value is 0.116%.

What about the “Percentage of tigecycline remaining” value [13] of the same compound?
Its value is 100%.

What about the “Total impurity content as a %” value [13] of the same compound?
Its value is 0.483%.

And the “Total tigecycline epimer content as a %” value [13]?
The value was 0.30%.

And the “Percentage of tigecycline remaining” value (pH 4.5, 8 h, oxygen <1 ppm)?
The value was 99.69%.

And the “Total impurity content as a %” value (pH 4.5, 8 h, oxygen <1 ppm)?
The value was 0.368%.

And the “Total tigecycline epimer content as a %” value (pH 4.5, 8 h, oxygen <1 ppm)?
Its value is 0.233%.

And the “Percentage of tigecycline remaining” value [14]?
Its value is 99%.

And the “Total impurity content as a %” value [14]?
The value was 0.75%.

And the “Total tigecycline epimer content as a %” value [14]?
Its value is 0.65%.

And the “Percentage of tigecycline remaining” value (pH 4.5, 24 h, oxygen <1 ppm)?
Its value is 99.72%.
